What is called Cmax is the peak of the concentration-time curve. A word on the bioavailability: it is the share of a dose that reaches the circulation, judged against a reference dose that is usually intravenous. A word on the EC50: it is the concentration needed to bring the measured effect to its halfway point. High values mean a less potent agent, low ones a more potent agent. By Emax is commonly meant the size of the effect at its maximum, as opposed to the concentration needed. Usually AUC stands for concentration integrated over time.

We go through 15 compounds from US20240368120A1 (Terns Pharmaceuticals, Inc., priority 2023, published 2024).

Bounds are passed on as bounds.

Data set [1] is described as follows: Rat pharmacokinetics, oral dosing. The note with it: male, Sprague-Dawley, oral dosing at 3 mg/kg, plasma; for half-life: read-out: Rat T1/2. Type of data set: in vivo, Sprague-Dawley rats. The method, then:
Intravenous dosing: Compounds were formulated at 1.0 mg/mL in a solution comprising 5% polyethylene glycol 400 and 95% (12% (w/v) sulfobutyl-β-cyclodextrin in water) (v/v). Formulated compounds were sterile filtered through a 0.22 micron filter before dosing. Compounds were administered to male, 7-11-week-old Sprague-Dawley rats by jugular vein cannula infusion over 30 minutes at a dose of 1 mg/kg. Oral dosing: Compounds were formulated at 1.0 mg/mL in a solution comprising 5% polyethylene glycol 400 and 95% (12% (w/v) sulfobutyl-β-cyclodextrin in water) (v/v). Formulated compounds were administered to male, 7-11 week old Sprague-Dawley rats by oral gavage at a dose of 10 mg/kg or 3 mg/kg.
Sample collection: Blood collections of about 0.2 mL per time point were performed from jugular vein or other suitable site of each animal, into pre-chilled commercial EDTA-K2 tubes and placed on wet ice until centrifugation. Blood samples were processed for plasma by centrifugation at approximately 4° C., 3,200 g for 10 min. Plasma was collected and transferred into pre-labeled 96 well plate or polypropylene tubes, quick frozen over dry ice and kept at −60° C. or lower until
Data analysis: Plasma concentration versus time data was plotted in graph and analyzed by non-compartmental approaches using the Phoenix WinNonlin 6.3 software program. Related PK parameters were calculated according to dosing route, e.g., CL, Vdss and C0 for intravenous administration, Cmax, Tmax or % F for extravascular administration, and T1/2, AUC(0-t), AUC(0-inf), MRT(0-t), MRT(0-inf) for all routes.

Data set [2] has as its target T1, human GLP-1R receptor (Homo sapiens, UniProt P43220).
T1 construct: expressed in transfected cells
Briefly: GLP-1R low expression cell assay (cAMP TR-FRET, CHO-K1_hGLP-1Rlow_clone10 cells). Type of data set: cell-based. The note with it: for EC50: cAMP TR-FRET, 30 min at 25° C.; for Emax: maximum activation relative to control GLP-1 peptide agonist. The method in brief: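 CHO-K1 cells stably expressing low surface human GLP-1R (clone10), 1,000 cells/well, exposed to 10-point 3-fold compound dilutions for 30 min at 25 °C. cAMP measured by TR-FRET (Eu-cAMP tracer/ULight-anti-cAMP, 15 min). EC50 from Hill fit of duplicate percent activation relative to a parallel GLP-1 control agonist.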

T1 sequence (P43220 24-463): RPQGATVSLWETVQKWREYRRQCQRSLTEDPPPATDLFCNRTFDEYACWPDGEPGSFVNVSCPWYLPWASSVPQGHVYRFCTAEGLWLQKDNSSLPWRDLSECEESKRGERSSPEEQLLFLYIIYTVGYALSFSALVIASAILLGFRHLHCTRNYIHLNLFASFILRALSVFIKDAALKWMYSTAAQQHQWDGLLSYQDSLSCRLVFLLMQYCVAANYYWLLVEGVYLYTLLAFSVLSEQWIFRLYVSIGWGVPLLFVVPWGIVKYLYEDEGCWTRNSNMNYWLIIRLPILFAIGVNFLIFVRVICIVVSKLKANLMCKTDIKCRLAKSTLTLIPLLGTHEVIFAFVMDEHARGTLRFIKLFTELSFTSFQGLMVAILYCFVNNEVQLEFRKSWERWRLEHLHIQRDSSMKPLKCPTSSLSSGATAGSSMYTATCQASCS

In the case of `COc1cc(Cl)ccc1COc1cccc(C2CCN(Cc3nc4c(OC(F)F)cc(C(=O)O)cc4n3C)CC2)n1` [Compound 226, 2-((4-(6-((4-Chloro-2-methoxybenzyl)oxy)pyridin-2-yl)piperidin-1-yl)methyl)-4-(difluoromethoxy)-1-methyl-1H-benzo[d]imidazole-6-carboxylic acid], in data set [1], the Cmax is more than 5000 ng/mL, the half-life was not below 2.5 h and the bioavailability was more than 85%. In data set [2], this compound displayed an EC50 of less than 10 nM and an Emax of more than 85%.

On to `Cn1c(CN2CCC(c3cccc(OCc4ccc(Cl)c5ccoc45)n3)CC2)nc2c(OC(F)F)cc(C(=O)O)cc21` [Compound 237, 2-((4-(6-((4-Chlorobenzofuran-7-yl)methoxy)pyridin-2-yl)piperidin-1-yl)methyl)-4-(difluoromethoxy)-1-methyl-1H-benzo[d]imidazole-6-carboxylic acid], for which, in data set [1], the maximum concentration (Cmax) is 2000 to 5000 ng/mL, the half-life is 1.5 to 2.5 h and the bioavailability was in the range of 50 to 85%. In data set [2], this compound returned a concentration giving a half-maximal response (EC50) of less than 10 nM and an Emax of more than 85%.

Take `COc1cc(C(=O)O)cc2c1nc(CN1CCC(c3cccc(OCc4ccc(Cl)cc4F)n3)CC1)n2C` [Compound 249, 2-((4-(6-((4-Chloro-2-fluorobenzyl)oxy)pyridin-2-yl)piperidin-1-yl)methyl)-4-methoxy-1-methyl-1H-benzo[d]imidazole-6-carboxylic acid]: in data set [1], the Cmax was more than 5000 ng/mL, the half-life was in the range of 1.5 to 2.5 h and the bioavailability was more than 85%. Moreover, in data set [2], the EC50 was less than 10 nM and the maximum response (Emax) was more than 85%.

Take `Cn1c(CN2CCC(c3cccc4c3O[C@@H](c3ccc(C#N)cc3F)CO4)CC2)nc2c(OCCF)cc(C(=O)O)cc21` [Compound 294, (S)-2-((4-(3-(4-Cyano-2-fluorophenyl)-2,3-dihydrobenzo[b][1,4]dioxin-5-yl)piperidin-1-yl)methyl)-4-(2-fluoroethoxy)-1-methyl-1H-benzo[d]imidazole-6-carboxylic acid]: in data set [1], the AUC was less than 500 ng·h/mL, the Cmax was less than 500 ng/mL, the half-life was not below 2.5 h and the bioavailability was less than 25%. Further, in data set [2], the EC50 is more than 1000 nM and the Emax was in the range of 50 to 85%.

Regarding `[2H]C([2H])(C)Oc1cc(C(=O)O)cc2c1nc(CN1CCC(c3cccc(OCc4ccc(C#N)cc4F)n3)CC1)n2C` [Compound 295, 2-((4-(6-((4-Cyano-2-fluorobenzyl)oxy)pyridin-2-yl)piperidin-1-yl)methyl)-4-(ethoxy-1,1-d2)-1-methyl-1H-benzo[d]imidazole-6-carboxylic acid], in data set [1], the AUC lay within 500 to 2500 ng·h/mL, the Cmax was in the range of 500 to 1000 ng/mL, the half-life lay within 1.5 to 2.5 h and the bioavailability was in the range of 25 to 50%. In data set [2], this compound yielded a 50% effective concentration (EC50) of less than 10 nM and an Emax of more than 85%.

On to `[2H]C([2H])(C)Oc1cc(C(=O)O)cc2c1nc(CN1CCC(c3cccc(OCc4ccc(Cl)cc4F)n3)CC1)n2C` [Compound 296, 2-((4-(6-((4-Chloro-2-fluorobenzyl)oxy)pyridin-2-yl)piperidin-1-yl)methyl)-4-(ethoxy-1,1-d2)-1-methyl-1H-benzo[d]imidazole-6-carboxylic acid], for which, in data set [1], the AUC was in the range of 2500 to 10000 ng·h/mL, the Cmax fell in the range of 2000 to 5000 ng/mL, the half-life was 1.5 to 2.5 h and the bioavailability lay in the range of 25 to 50%. Moreover, in data set [2], the half-maximal effective concentration (EC50) was less than 10 nM and the Emax is more than 85%.

In the case of `COc1cc(C(=O)O)cc2c1nc(CN1CCC(c3cccc(OCc4ccc(Cl)c5c4OCC5)n3)CC1)n2C` [Compound 297, 2-((4-(6-((4-Chloro-2,3-dihydrobenzofuran-7-yl)methoxy)pyridin-2-yl)piperidin-1-yl)methyl)-4-methoxy-1-methyl-1H-benzo[d]imidazole-6-carboxylic acid], in data set [1], the Cmax was in the range of 2000 to 5000 ng/mL, the half-life lay in the range of 1.5 to 2.5 h and the bioavailability is 25 to 50%. Besides, in data set [2], the EC50 is less than 10 nM and the Emax was more than 85%.

`CCOc1cc(C(=O)O)cc2c1nc(CN1CCC(c3cccc(OCc4ccc(C#N)cc4F)n3)CC1)n2C` [Compound 298, 2-((4-(6-((4-Cyano-2-fluorobenzyl)oxy)pyridin-2-yl)piperidin-1-yl)methyl)-4-ethoxy-1-methyl-1H-benzo[d]imidazole-6-carboxylic acid]: in data set [1], the AUC lay within 500 to 2500 ng·h/mL, the Cmax is 1000 to 2000 ng/mL, the half-life was not below 2.5 h and the bioavailability is 25 to 50%. Also, in data set [2], the EC50 is less than 10 nM and the Emax was more than 85%.

With `Cn1c(CN2CCC(c3cccc4c3O[C@@H](c3ccc(Cl)cc3F)CO4)CC2)nc2c(OCCF)cc(C(=O)O)cc21` [Compound 299, (S)-2-((4-(3-(4-chloro-2-fluorophenyl)-2,3-dihydrobenzo[b][1,4]dioxin-5-yl)piperidin-1-yl)methyl)-4-(2-fluoroethoxy)-1-methyl-1H-benzo[d]imidazole-6-carboxylic acid], in data set [1], the AUC was 500 to 2500 ng·h/mL, the Cmax is less than 500 ng/mL, the half-life was in the range of 1.5 to 2.5 h and the bioavailability fell in the range of 50 to 85%. In addition, in data set [2], the EC50 was less than 10 nM and the Emax was more than 85%.

In the case of `Cn1c(CN2CCC(c3cccc4c3OC[C@@H](c3ccc(C#N)cc3F)O4)CC2)nc2c(OC(F)F)cc(C(=O)O)cc21` [Compound 300, (R)-2-((4-(2-(4-Cyano-2-fluorophenyl)-2,3-dihydrobenzo[b][1,4]dioxin-5-yl)piperidin-1-yl)methyl)-4-(difluoromethoxy)-1-methyl-1H-benzo[d]imidazole-6-carboxylic acid], in data set [1], the Cmax fell in the range of 2000 to 5000 ng/mL, the half-life is not below 2.5 h and the bioavailability is more than 85%. In data set [2], this compound had an EC50 of 100 to 1000 nM and an Emax of more than 85%.

Consider `COc1c(F)c(C(=O)O)cc2c1nc(CN1CCC(c3cccc(OCc4ccc(C#N)cc4F)n3)CC1)n2C` [Compound 301, 2-((4-(6-((4-Cyano-2-fluorobenzyl)oxy)pyridin-2-yl)piperidin-1-yl)methyl)-5-fluoro-4-methoxy-1-methyl-1H-benzo[d]imidazole-6-carboxylic acid], for which, in data set [1], the AUC is 500 to 2500 ng·h/mL, the Cmax lay in the range of 500 to 1000 ng/mL, the half-life fell in the range of 1.5 to 2.5 h and the bioavailability was 50 to 85%. In data set [2], this compound showed an EC50 of 10 to 100 nM and an Emax of more than 85%.

Regarding `COc1cc(C(=O)O)c(F)c2c1nc(CN1CCC(c3cccc(OCc4ccc(Cl)cc4F)n3)CC1)n2C` [Compound 302, 2-((4-(6-((4-Chloro-2-fluorobenzyl)oxy)pyridin-2-yl)piperidin-1-yl)methyl)-7-fluoro-4-methoxy-1-methyl-1H-benzo[d]imidazole-6-carboxylic acid], in data set [1], the AUC lay within 2500 to 10000 ng·h/mL, the peak concentration (Cmax) was 2000 to 5000 ng/mL, the half-life was not below 2.5 h and the bioavailability was in the range of 50 to 85%. In data set [2], the EC50 is less than 10 nM and the Emax was more than 85%.

Turning to `COc1cc(C(=O)O)c(F)c2c1nc(CN1CCC(c3cccc(OCc4ccc(C#N)cc4F)n3)CC1)n2C` [Compound 303, 2-((4-(6-((4-Cyano-2-fluorobenzyl)oxy)pyridin-2-yl)piperidin-1-yl)methyl)-7-fluoro-4-methoxy-1-methyl-1H-benzo[d]imidazole-6-carboxylic acid], in data set [1], the AUC was 500 to 2500 ng·h/mL, the maximum concentration (Cmax) was in the range of 500 to 1000 ng/mL, the half-life was not below 2.5 h and the bioavailability is less than 25%. In data set [2], the EC50 was in the range of 10 to 100 nM and the Emax was more than 85%.

For the compound `COc1cc(C(=O)O)cc2c1nc(Cc1cc(F)c(-c3cccc(OCc4ccc(C#N)cc4F)n3)cc1F)n2C` [Compound 304, 2-(4-(6-((4-Cyano-2-fluorobenzyl)oxy)pyridin-2-yl)-2,5-difluorobenzyl)-4-methoxy-1-methyl-1H-benzo[d]imidazole-6-carboxylic acid], in data set [1], the AUC is 2500 to 10000 ng·h/mL, the highest concentration (Cmax) was 2000 to 5000 ng/mL, the half-life fell in the range of 1.5 to 2.5 h and the bioavailability is 50 to 85%. In data set [2], this compound showed an EC50 of less than 10 nM and an Emax of more than 85%.

On to `COc1cc(C(=O)O)cc2c1nc(CN1CCC(c3cccc(OCc4ccc(C(F)F)cc4F)n3)CC1)n2C` [Compound 305, 2-((4-(6-((4-(Difluoromethyl)-2-fluorobenzyl)oxy)pyridin-2-yl)piperidin-1-yl)methyl)-4-methoxy-1-methyl-1H-benzo[d]imidazole-6-carboxylic acid], for which, in data set [1], the exposure (AUC) is 2500 to 10000 ng·h/mL, the Cmax was 2000 to 5000 ng/mL, the half-life was 1.5 to 2.5 h and the bioavailability fell in the range of 50 to 85%. In addition, in data set [2], the EC50 was in the range of 10 to 100 nM and the Emax is more than 85%.
